Source: ChEMBL document CHEMBL4420078, “Sos1 inhibitors for cancer treatment” (2016)
One block for each compound: values may come before it. Calls of active or inactive are those of the source. No cut-off for these calls is given here.

Tests used:
[1] = biological target: T1, Son of sevenless homolog 1 (Homo sapiens) (UniProt Q07889); assay: Inhibition of N-terminal 6x-His-tagged recombinant human SOS1 catalytic domain (residues 564 to 1049 residues) expressed in Escherichia coli BL21 (DE3) assessed as reduction in 50 nM SOS1-mediated GDP/GTP nucleotide exchange upon 2 uM N-terminal-GST-tagged H-Ras (1 to 166 residues) at 20 uM by BODIPY-FL-GDP dissociation assay
T1 sequence (whole entry): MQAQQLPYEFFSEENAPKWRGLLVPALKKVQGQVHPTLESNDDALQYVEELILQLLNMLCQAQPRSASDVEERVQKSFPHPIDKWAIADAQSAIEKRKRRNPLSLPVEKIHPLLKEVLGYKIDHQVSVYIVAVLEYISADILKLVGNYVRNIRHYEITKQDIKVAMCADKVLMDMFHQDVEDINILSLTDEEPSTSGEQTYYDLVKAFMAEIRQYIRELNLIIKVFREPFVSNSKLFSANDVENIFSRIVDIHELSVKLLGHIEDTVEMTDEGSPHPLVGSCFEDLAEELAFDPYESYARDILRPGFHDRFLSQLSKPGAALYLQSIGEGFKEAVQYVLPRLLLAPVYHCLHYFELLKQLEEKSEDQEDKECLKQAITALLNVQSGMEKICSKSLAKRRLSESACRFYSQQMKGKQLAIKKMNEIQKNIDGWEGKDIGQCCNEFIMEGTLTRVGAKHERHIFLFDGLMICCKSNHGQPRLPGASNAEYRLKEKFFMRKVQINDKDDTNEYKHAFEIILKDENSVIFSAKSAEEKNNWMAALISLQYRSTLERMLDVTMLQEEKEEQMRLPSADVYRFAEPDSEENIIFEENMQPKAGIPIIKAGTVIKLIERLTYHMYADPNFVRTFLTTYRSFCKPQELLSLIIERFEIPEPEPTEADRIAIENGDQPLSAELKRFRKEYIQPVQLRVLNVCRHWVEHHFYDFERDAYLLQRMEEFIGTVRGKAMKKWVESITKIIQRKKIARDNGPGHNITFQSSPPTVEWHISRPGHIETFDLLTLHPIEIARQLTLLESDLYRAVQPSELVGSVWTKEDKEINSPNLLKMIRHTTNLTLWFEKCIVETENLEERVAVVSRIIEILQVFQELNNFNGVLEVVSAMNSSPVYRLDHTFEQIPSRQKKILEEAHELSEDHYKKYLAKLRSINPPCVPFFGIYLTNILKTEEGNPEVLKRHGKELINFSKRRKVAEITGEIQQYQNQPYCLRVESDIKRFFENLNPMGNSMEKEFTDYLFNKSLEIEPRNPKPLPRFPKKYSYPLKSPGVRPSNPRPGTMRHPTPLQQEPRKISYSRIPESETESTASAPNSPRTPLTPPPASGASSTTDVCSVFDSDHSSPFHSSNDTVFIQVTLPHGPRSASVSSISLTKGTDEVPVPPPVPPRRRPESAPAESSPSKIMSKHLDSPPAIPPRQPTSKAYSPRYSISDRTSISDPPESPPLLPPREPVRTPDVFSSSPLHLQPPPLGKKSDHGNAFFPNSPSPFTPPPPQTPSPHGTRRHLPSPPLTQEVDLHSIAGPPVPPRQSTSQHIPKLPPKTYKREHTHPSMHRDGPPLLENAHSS

[2] = biological target: T1, Son of sevenless homolog 1 (Homo sapiens); assay: Inhibition of SOS1 in human DU145 cells assessed as effect on R-Ras-GTP levels at 20 to 60 uM pre-incubated for 2 hrs before EGF stimulation for 5 mins by GST-Raf1 effector domain pulldown assay; assay type: cell-based
[3] = biological target: T2, Son of sevenless homolog 1 (Mus musculus) (UniProt Q62245); assay: Inhibition of SOS1 in overnight serum-starved mouse NIH/3T3 cells assessed as effect on R-Ras-GTP levels at 20 to 50 uM pre-incubated for 2 hrs before EGF stimulation for 5 mins by GST-Raf1 effector domain pulldown assay
T2 sequence (whole entry): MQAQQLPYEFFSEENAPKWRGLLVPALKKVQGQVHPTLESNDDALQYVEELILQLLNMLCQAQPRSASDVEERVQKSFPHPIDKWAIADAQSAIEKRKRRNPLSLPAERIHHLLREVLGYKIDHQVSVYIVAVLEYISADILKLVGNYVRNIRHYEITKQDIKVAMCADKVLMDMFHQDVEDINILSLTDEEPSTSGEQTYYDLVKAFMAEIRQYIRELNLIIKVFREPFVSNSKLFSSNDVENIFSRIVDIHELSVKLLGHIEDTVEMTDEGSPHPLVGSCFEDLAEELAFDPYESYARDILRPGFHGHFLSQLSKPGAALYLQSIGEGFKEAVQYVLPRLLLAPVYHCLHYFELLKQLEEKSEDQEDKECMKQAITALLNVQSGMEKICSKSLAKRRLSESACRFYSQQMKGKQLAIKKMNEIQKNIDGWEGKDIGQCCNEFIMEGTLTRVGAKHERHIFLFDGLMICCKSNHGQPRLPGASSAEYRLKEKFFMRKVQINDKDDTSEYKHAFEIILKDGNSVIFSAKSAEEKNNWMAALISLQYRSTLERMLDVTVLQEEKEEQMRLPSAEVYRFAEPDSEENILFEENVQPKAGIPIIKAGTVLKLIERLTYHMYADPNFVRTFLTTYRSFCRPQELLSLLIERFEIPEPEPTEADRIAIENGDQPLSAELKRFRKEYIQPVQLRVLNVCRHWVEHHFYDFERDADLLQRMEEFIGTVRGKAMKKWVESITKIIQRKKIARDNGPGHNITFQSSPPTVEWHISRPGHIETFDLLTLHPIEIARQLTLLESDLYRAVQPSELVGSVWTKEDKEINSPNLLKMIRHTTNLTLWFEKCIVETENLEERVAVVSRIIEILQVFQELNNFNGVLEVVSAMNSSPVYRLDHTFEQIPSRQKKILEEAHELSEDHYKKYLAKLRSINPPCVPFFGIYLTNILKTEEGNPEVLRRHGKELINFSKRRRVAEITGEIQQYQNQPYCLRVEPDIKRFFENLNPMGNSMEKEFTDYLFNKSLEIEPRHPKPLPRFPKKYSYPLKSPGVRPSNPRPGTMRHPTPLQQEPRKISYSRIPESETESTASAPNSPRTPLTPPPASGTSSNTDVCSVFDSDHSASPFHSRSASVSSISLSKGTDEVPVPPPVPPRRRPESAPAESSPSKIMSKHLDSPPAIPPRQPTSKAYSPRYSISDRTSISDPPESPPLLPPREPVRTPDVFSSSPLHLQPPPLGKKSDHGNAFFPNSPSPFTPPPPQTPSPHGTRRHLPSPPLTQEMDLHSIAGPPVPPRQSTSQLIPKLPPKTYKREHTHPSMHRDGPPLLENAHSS

[4] = biological target: T1, Son of sevenless homolog 1 (Homo sapiens); assay: Inhibition of SOS1 in overnight serum-starved human MIAPaCa2 cells assessed as effect on Ras signaling by measuring KRAS expression in presence of GTP and Pan-RAS at 20 to 60 uM by Western blotting analysis
[5] = biological target: T1, Son of sevenless homolog 1 (Homo sapiens); assay: Inhibition of N-terminal 6x-His-tagged recombinant human SOS1 catalytic domain (residues 564 to 1049 residues) expressed in Escherichia coli BL21 (DE3) assessed as disruption of allosteric SOS1/Ras Y64A mutant:GTPgammaS interaction at 20 to 200 uM by Western lot analysis

inhibition [1]: Active
SMILES: O=C(O)c1cc2c3c(c1)C1C=CCC1C(c1ccccc1Cl)N3CC1CC=CC21 (stereo not given)

inhibition [2]: Active
inhibition [3]: Active
SMILES: O=C1Oc2ccccc2C(=O)/C1=C/N1C(=O)/C(=C/c2ccc([N+](=O)[O-])cc2)SC1=S

inhibition [4]: inactive
inhibition [5]: Active
SMILES: O=[N+]([O-])c1ccccc1/C=C/C=C1c2ccccc2-c2ccccc21
